Each structure is given as a SMILES string.

The subject of data set [1] is inactivated yeast. Description: Encapsulation of bioactives into inactivated yeast cells (conventional diffusion, vacuum infusion, pressure). It counts as physicochemical, Saccharomyces cerevisiae. An excerpt:
Prior to encapsulation of bioactives, selected strains of both yeast and algal cells are inactivated with a chemical treatment. Chemical inactivation of yeast or algal cells stops the metabolic processes while preserving the structure and chemical composition of the cells. […] The concentration of ethanol is selected based on the results of the previous study. Briefly, 1 gm of yeast or algal cells pellet is suspended in the 35% ethanolic solution of the selected bioactive compound. […] We have determined the % ethanol to achieve sufficient encapsulation of the selected encapsulated bioactive compounds using both the vacuum and high pressure assisted encapsulation process. Yeast or algal cell samples suspended in the ethanolic solution with the bioactive compound are sealed in boilable vacuum bags (Prime Source) at 99% vacuum (Ultravac 250, Koch Equipment LLC). […] The sealed samples are covered with aluminum foil to prevent any photo-degradation of the bioactives and incubated at room temperature (25° C.) for 10 minutes. Samples are emptied into 50 mL centrifuge tubes, centrifuged at 2200 rpm for 10 minutes to pellet the cells and the pelleted cells are washed twice with ethanolic solution (35%) and then five times with excess water to remove unencapsulated bioactives. […] Samples are emptied into 50 mL centrifuge tubes, centrifuged to pellet the cells (2200 rpm for 10 minutes) and the pelleted cells are washed twice with ethanolic solution (35%) and then five times with excess water to remove unencapsulated bioactives. Briefly, yeast or algal samples in a 35% ethanolic solution of the selected bioactive compound are covered with a single layer of aluminum foil to prevent photolysis. Samples are then placed into a rotary incubator at 50° C. and 200 rpm for 24 hours. After removal from the incubator, cells are removed by centrifugation at 2000 rpm for 10 minutes. The supernatant is decanted to isolate the pelleted cells and the pelleted cells are washed as described above to remove unencapsulated bioactives. Cells are sonicated to disrupt the cellular structure. A methanol extraction is utilized to extract the encapsulated bioactives from the disrupted yeast or algal cells. 0.05 g of cells (wet basis) with encapsulated bioactives are sonicated to disrupt cellular structure and subsequently incubated with 1 mL methanol. Samples are then briefly vortexed and centrifuged at 14,000 rpm for 10 minutes. The concentration of bioactive compound dissolved in the organic phase is measured using UV-vis spectrophotometer. […] Measuring loading of these bioactive compounds in various emulsions and nanoparticles has been described. The encapsulation efficiency is determined as follows: [formula] where CE is the mass of extracted bioactive from the cells after encapsulation and CT is the amount of bioactive initially added to the cells. We have developed an innovative bioencapsulation process that provides rapid and efficient infusion of bioactives in isolated cells and lipid bodies. In this process, yeast or algal cells incubated in a solution containing bioactive were subjected to a vacuum (97% vacuum) or mild-high hydrostatic pressure (35-100 MPa) for ˜5-10 minutes. […] The results of these measurements were compared with the conventional process used for encapsulation of bioactive compounds in yeast cells.

For data set [2], the system named is Chlorella minutissima. The experiment in a line: Encapsulation of curcumin in algae cells using pressure assisted encapsulation. The settings on record: vacuum sealing, 5% ethanol, 100 mg cells. The data set is classed as physicochemical. An excerpt: (§1) Briefly, 1 gm of yeast or algal cells pellet is suspended in the 35% ethanolic solution of the selected bioactive compound. […] We have determined the % ethanol to achieve sufficient encapsulation of the selected encapsulated bioactive compounds using both the vacuum and high pressure assisted encapsulation process. Yeast or algal cell samples suspended in the ethanolic solution with the bioactive compound are sealed in boilable vacuum bags (Prime Source) at 99% vacuum (Ultravac 250, Koch Equipment LLC). […] The sealed samples are covered with aluminum foil to prevent any photo-degradation of the bioactives and incubated at room temperature (25° C.) for 10 minutes. Samples are emptied into 50 mL centrifuge tubes, centrifuged at 2200 rpm for 10 minutes to pellet the cells and the pelleted cells are washed twice with ethanolic solution (35%) and then five times with excess water to remove unencapsulated bioactives. Cells are sonicated to disrupt the cellular structure. […] The concentration of bioactive compound dissolved in the organic phase is measured using UV-vis spectrophotometer. […] The encapsulation efficiency is determined as follows: [formula] where CE is the mass of extracted bioactive from the cells after encapsulation and CT is the amount of bioactive initially added to the cells. […]

Data set [3] relates to Chlorella sorokiniana. Described as above. The data set is classed as physicochemical. The settings on record: vacuum sealing, 5% ethanol, 50 mg cells.
From the text: as §1

The test system of data set [4] is E. coli (BL21). Description: Encapsulation efficiency into bacteria by vacuum infusion. The settings on record: vacuum infused, 35% ethanol. It counts as physicochemical.
Data set [5] relates to L. casei (S1). The data set is described as above. Particulars: vacuum infused, 35% ethanol. It counts as physicochemical, Lactobacillus casei.
The subject of data set [6] is porcine mouth mucosa. The experiment in a line: Curcumin release and diffusion in porcine mouth mucosa from yeast encapsulation system. The method, then: Curcumin release and diffusion in porcine mouth mucosa from yeast encapsulation system was evaluated. Yeast microcapsules loaded with curcumin were topically applied on the porcine oral cavity tissue. After incubations for corresponding time periods, curcumin permeation was detected by imaging the tissue cross-sections. Both integrated pixel intensity and penetration distance from skin top surface were calculated. The results are depicted in FIG. 18. […] Furthermore, the yeast carriers can be engineered to act as a programmable microcarrier system that can provide controlled or triggered release of bioactive components in oral mucosa. This engineering can be accomplished by physical, chemical and/or genetic modification of the cell wall and cytoplasmic composition of yeast cells including modification of their lipid content.

On to `COc1cc(/C=C/C(=O)CC(=O)/C=C/c2ccc(O)c(OC)c2)ccc1O` [Curcumin, curcumin], for which the “Mass of Encapsulated Bioactive in Yeast” value in data set [1] (100 mM PBS, pH = 6.5, Conventional Diffusion, saturated solution, 35% v/v ethanol) is 0.064 mg/g; in data set [1] (100 mM PBS, pH = 6.5, HPP (200 MPa), saturated solution, 35% v/v ethanol), 0.242 mg/g; in data set [1] (100 mM PBS, pH = 6.5, Vacuum Infusion, saturated solution, 35% v/v ethanol), 0.305 mg/g; in data set [1] (2% Tween 20 in 100 mM Tris Buffer, pH = 8, Conventional Diffusion, saturated solution, 35% v/v ethanol), 0.292 mg/g; in data set [1] (2% Tween 20 in 100 mM Tris Buffer, pH = 8, HPP (200 MPa), saturated solution, 35% v/v ethanol), 0.415 mg/g; in data set [1] (2% Tween 20 in 100 mM Tris Buffer, pH = 8, Vacuum Infusion, saturated solution, 35% v/v ethanol), 0.483 mg/g. Moreover, the “Mass of Encapsulated Bioactive in Yeast” value was found to be 0.392 mg/g in data set [1] (Commercial Baker's Yeast, vacuum infused, 35% ethanol); 0.134 mg/g in data set [1] (Conventional Diffusion, Single Loading); 0.260 mg/g in data set [1] (S. Cerevisiae (68-115), lipogenesis Induced, vacuum infused, 35% ethanol); 0.238 mg/g in data set [1] (S. Cerevisiae (68-115), lipogenesis Suppressed, vacuum infused, 35% ethanol); 0.442 mg/g in data set [1] (Vacuum, Dual Loading (curcumin and fisetin added together)). For the same compound, the “Mass of Encapsulated Bioactive in Algae” value in data set [2] was 0.184 mg/g; in data set [3], 0.355 mg/g. In addition, the “Mass of Encapsulated Bioactive in Bacteria” value in data set [4] was found to be 0.489 mg/g; in data set [5] it was 1.041 mg/g. In addition, the “integrity of the compound in tissue” value in data set [6] (after 12 h) is on record as “remained intact”. In data set [6] (yeast microcapsules loaded with curcumin, topically applied), the “diffusion into mouth mucosa tissue” value was “diffused into mouth mucosa tissue with a strong time-dependent manner”.

For the origin of these results see patent publication US10864168B2, “Bioactive delivery vehicles” (The Regents of the University of California, priority 2014, dated 2020).
